biological target: T1, mTOR (Homo sapiens, UniProt P42345); assay: In Vitro mTOR Kinase Assay (Echo), Test (a)(ii); type: biochemical; settings: read-out: mTOR Kinase Assay (Echo)
T1 construct: FLAG; made in house
Source text: (a)(ii) In Vitro mTOR Kinase Assay (Echo)
The assay used AlphaScreen technology (Gray et al., Analytical Biochemistry, 2003, 313: 234-245) to determine the ability of test compounds to inhibit phosphorylation by recombinant mTOR.
A C-terminal truncation of mTOR encompassing amino acid residues 1362 to 2549 of mTOR (EMBL Accession No. L34075) was stably expressed as a FLAG-tagged fusion in HEK293 cells as described by Vilella-Bach et al., […], 1999, 274, 4266-4272. The HEK293 FLAG-tagged mTOR (1362-2549) stable cell line was routinely maintained at 37° C. with 5% CO2 up to a confluency of 70-90% in Dulbecco's modified Eagle's growth medium (DMEM; Invitrogen Limited, Paisley, UK Catalogue No. 41966-029) containing 10% heat-inactivated foetal calf serum (FCS; Sigma, Poole, Dorset, UK, Catalogue No. F0392), 1% L-glutamine (Gibco, Catalogue No. 25030-024) and 2 mg/ml Geneticin (G418 sulfate; Invitrogen Limited, UK Catalogue No. 1013 1-027). Following expression in the mammalian HEK293 cell line, expressed protein was purified using the FLAG epitope tag using standard purification techniques.
Aliquots (120 nl […]) of each compound dilution were acoustically dispensed placed using a Labcyte Echo 550 into a well of a Greiner 384-well low volume (LV) white polystyrene plate (Greiner Bio-one).
These assay solutions were incubated for 2 hours at room temperature.
Each reaction was stopped by the addition of […] of a mixture of EDTA (50 mM), bovine serum albumin (BSA; 0.5 mg/mL) and Tris-HCl pH 7.4 buffer (50 mM) containing p70 S6 Kinase (T389) 1A5 Monoclonal Antibody (Cell Signalling Technology, Catalogue No. 9206B) and AlphaScreen Streptavidin donor and Protein A acceptor beads (200 ng; Perkin Elmer, Catalogue No. 6760002B and 6760137R respectively) were added and the assay plates were left overnight at room temperature in the dark. The resultant signals arising from laser light excitation at 680 nm were read using a Packard Envision instrument.
The phosphorylated biotinylated peptide that is associated with AlphaScreen Streptavidin donor beads forms a complex with the p70 S6 Kinase (T389) 1A5 Monoclonal Antibody that is associated with Alphascreen Protein A acceptor beads. Upon laser light excitation at 680 nm, the donor bead: acceptor bead complex produces a signal that can be measured. Accordingly, the presence of mTOR kinase activity results in an assay signal. In the presence of an mTOR kinase inhibitor, signal strength is reduced.
mTOR enzyme inhibition for a given test compound was expressed as an IC50 value.

T1 sequence (P42345 1362-2549): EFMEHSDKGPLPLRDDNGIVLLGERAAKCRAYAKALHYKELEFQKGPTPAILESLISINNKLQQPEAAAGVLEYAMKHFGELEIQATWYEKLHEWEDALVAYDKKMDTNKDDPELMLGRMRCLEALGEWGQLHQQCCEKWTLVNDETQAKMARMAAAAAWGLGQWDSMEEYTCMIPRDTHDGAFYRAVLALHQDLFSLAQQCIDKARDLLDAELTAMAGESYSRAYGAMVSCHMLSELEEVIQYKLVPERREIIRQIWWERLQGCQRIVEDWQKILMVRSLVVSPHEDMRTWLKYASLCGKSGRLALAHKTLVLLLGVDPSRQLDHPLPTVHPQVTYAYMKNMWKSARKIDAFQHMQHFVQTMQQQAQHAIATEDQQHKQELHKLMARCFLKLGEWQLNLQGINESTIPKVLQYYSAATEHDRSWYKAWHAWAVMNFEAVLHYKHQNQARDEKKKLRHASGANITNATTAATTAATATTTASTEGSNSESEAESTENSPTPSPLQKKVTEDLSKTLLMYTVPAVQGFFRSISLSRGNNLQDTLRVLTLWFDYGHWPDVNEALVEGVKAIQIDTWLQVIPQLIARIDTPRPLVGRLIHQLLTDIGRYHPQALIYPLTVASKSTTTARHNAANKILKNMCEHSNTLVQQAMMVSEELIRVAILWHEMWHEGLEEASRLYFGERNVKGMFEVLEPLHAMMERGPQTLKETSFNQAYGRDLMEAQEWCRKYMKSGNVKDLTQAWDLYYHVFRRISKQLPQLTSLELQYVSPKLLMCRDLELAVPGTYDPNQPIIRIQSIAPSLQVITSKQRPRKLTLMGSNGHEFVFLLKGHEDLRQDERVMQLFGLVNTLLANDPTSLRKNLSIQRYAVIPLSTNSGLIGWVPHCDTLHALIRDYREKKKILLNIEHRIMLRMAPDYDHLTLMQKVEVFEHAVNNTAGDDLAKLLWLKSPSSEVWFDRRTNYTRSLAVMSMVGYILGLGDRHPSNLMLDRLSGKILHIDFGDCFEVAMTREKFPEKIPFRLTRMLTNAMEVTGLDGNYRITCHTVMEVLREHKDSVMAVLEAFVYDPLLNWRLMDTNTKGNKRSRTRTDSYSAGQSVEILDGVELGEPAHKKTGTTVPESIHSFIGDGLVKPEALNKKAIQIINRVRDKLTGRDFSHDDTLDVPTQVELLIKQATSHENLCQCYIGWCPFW

Structure (SMILES) | IC50 [nM]
C[C@H]1COCCN1c1cc(C2(S(C)(=O)=O)CC2)nc(-c2ccc(NC(=O)Nc3ccc(F)cn3)cc2)n1 [Example 2v, 3-(5-fluoropyridin-2-yl)-1-[4-[4-[(3S)-3-methylmorpholin-4-yl]-6-(1-methylsulfonylcyclopropyl)pyrimidin-2-yl]phenyl]urea] | 8.66
C[C@H]1COCCN1c1cc(C2(S(C)(=O)=O)CC2)nc(-c2ccc(NC(=O)NCC(C)(C)CO)cc2)n1 [Example 2w, 3-(3-hydroxy-2,2-dimethylpropyl)-1-[4-[4-[(3S)-3-methylmorpholin-4-yl]-6-(1-methylsulfonylcyclopropyl)pyrimidin-2-yl]phenyl]urea] | 68.5
C[C@H]1COCCN1c1cc(C2(S(C)(=O)=O)CC2)nc(-c2ccc(NC(=O)NCCN3CCCC3)cc2)n1 [Example 2y, 1-[4-[4-[(3S)-3-methylmorpholin-4-yl]-6-(1-methylsulfonylcyclopropyl)pyrimidin-2-yl]phenyl]-3-(2-pyrrolidin-1-ylethyl)urea] | 230
C[C@H]1COCCN1c1cc(C2(S(C)(=O)=O)CC2)nc(-c2ccc(NC(=O)NCC(O)C(F)(F)F)cc2)n1 (stereo partly drawn) [Example 2z, 1-[4-[4-[(3S)-3-methylmorpholin-4-yl]-6-(1-methylsulfonylcyclopropyl)pyrimidin-2-yl]phenyl]-3-(3,3,3-trifluoro-2-hydroxypropyl)urea] | 18.1
C[C@H]1COCCN1c1cc(C2(S(=O)(=O)C3CC3)CC2)nc(-c2ccc(NC(=O)NC3CCC3)cc2)n1 [Example 3a, 3-cyclobutyl-1-[4-[4-(1-cyclopropylsulfonylcyclopropyl)-6-[(3S)-3-methylmorpholin-4-yl]pyrimidin-2-yl]phenyl]urea] | 4.45
C[C@H]1COCCN1c1cc(C2(S(=O)(=O)C3CC3)CC2)nc(-c2ccc(NC(=O)Nc3ccccn3)cc2)n1 [Example 3b, 1-[4-[4-(1-cyclopropylsulfonylcyclopropyl)-6-[(3S)-3-methylmorpholin-4-yl]pyrimidin-2-yl]phenyl]-3-pyridin-2-yl-urea] | 3.85
CC(C)CNC(=O)Nc1ccc(-c2nc(N3CCOC[C@@H]3C)cc(C3(S(=O)(=O)C4CC4)CC3)n2)cc1 [Example 3c, 1-[4-[4-(1-cyclopropylsulfonylcyclopropyl)-6-[(3S)-3-methylmorpholin-4-yl]pyrimidin-2-yl]phenyl]-3-(2-methylpropyl)urea] | 12.4
CC(C)NC(=O)Nc1ccc(-c2nc(N3CCOC[C@@H]3C)cc(C3(S(=O)(=O)C4CC4)CC3)n2)cc1 [Example 3d, 1-[4-[4-(1-cyclopropylsulfonylcyclopropyl)-6-[(3S)-3-methylmorpholin-4-yl]pyrimidin-2-yl]phenyl]-3-propan-2-yl-urea] | 13.5
C[C@H]1COCCN1c1cc(C2(S(=O)(=O)C3CC3)CC2)nc(-c2ccc(NC(=O)NCCN(C)C)cc2)n1 [Example 3f, 1-[4-[4-(1-cyclopropylsulfonylcyclopropyl)-6-[(3S)-3-methylmorpholin-4-yl]pyrimidin-2-yl]phenyl]-3-(2-dimethylaminoethyl)urea] | 21.4
CCCNC(=O)Nc1ccc(-c2nc(N3CCOC[C@@H]3C)cc(C3(S(=O)(=O)C4CC4)CC3)n2)cc1 [Example 3h, 3-[4-[4-(1-cyclopropylsulfonylcyclopropyl)-6-[(3S)-3-methylmorpholin-4-yl]pyrimidin-2-yl]phenyl]-1-propyl-urea] | 16.5
C[C@H]1COCCN1c1cc(C2(S(=O)(=O)C3CC3)CC2)nc(-c2ccc(NC(=O)Nc3ccc(C(F)(F)F)cc3)cc2)n1 [Example 3j, 1-[4-[4-(1-cyclopropylsulfonylcyclopropyl)-6-[(3S)-3-methylmorpholin-4-yl]pyrimidin-2-yl]phenyl]-3-[4-(trifluoromethyl)phenyl]urea] | 4.22
C[C@H]1COCCN1c1cc(C2(S(=O)(=O)C3CC3)CC2)nc(-c2ccc(NC(=O)NCC(C)(C)CO)cc2)n1 [Example 3n, 1-[4-[4-(1-cyclopropylsulfonylcyclopropyl)-6-[(3S)-3-methylmorpholin-4-yl]pyrimidin-2-yl]phenyl]-3-(3-hydroxy-2,2-dimethylpropyl)urea] | 39.6

The next molecules have a lower IC50 than those just listed; values first:

IC50 [nM] | Structure (SMILES)
2.7 | C[C@H]1COCCN1c1cc(C2(S(C)(=O)=O)CC2)nc(-c2ccc(NC(=O)Nc3ccc(F)cc3)cc2)n1 [Example 2p, 3-(4-fluorophenyl)-1-[4-[4-[(3S)-3-methylmorpholin-4-yl]-6-(1-methylsulfonylcyclopropyl)pyrimidin-2-yl]phenyl]urea]
1 | C[C@H]1COCCN1c1cc(C2(S(C)(=O)=O)CC2)nc(-c2ccc(NC(=O)Nc3ccc(F)c(F)c3)cc2)n1 [Example 2q, 3-(3,4-difluorophenyl)-1-[4-[4-[(3S)-3-methylmorpholin-4-yl]-6-(1-methylsulfonylcyclopropyl)pyrimidin-2-yl]phenyl]urea]
0.66 | Cc1ccc(NC(=O)Nc2ccc(-c3nc(N4CCOC[C@@H]4C)cc(C4(S(C)(=O)=O)CC4)n3)cc2)cc1 [Example 2r, 1-[4-[4-[(3S)-3-methylmorpholin-4-yl]-6-(1-methylsulfonylcyclopropyl)pyrimidin-2-yl]phenyl]-3-(4-methylphenyl)urea]
1.38 | C[C@H]1COCCN1c1cc(C2(S(C)(=O)=O)CC2)nc(-c2ccc(NC(=O)Nc3ccc(Cl)cc3)cc2)n1 [Example 2s, 3-(4-chlorophenyl)-1-[4-[4-[(3S)-3-methylmorpholin-4-yl]-6-(1-methylsulfonylcyclopropyl)pyrimidin-2-yl]phenyl]urea]
1.45 | COc1ccc(NC(=O)Nc2ccc(-c3nc(N4CCOC[C@@H]4C)cc(C4(S(C)(=O)=O)CC4)n3)cc2)cc1 [Example 2t, 3-(4-methoxyphenyl)-1-[4-[4-[(3S)-3-methylmorpholin-4-yl]-6-(1-methylsulfonylcyclopropyl)pyrimidin-2-yl]phenyl]urea]
1.18 | Cc1cc(NC(=O)Nc2ccc(-c3nc(N4CCOC[C@@H]4C)cc(C4(S(C)(=O)=O)CC4)n3)cc2)no1 [Example 2u, 1-[4-[4-[(3S)-3-methylmorpholin-4-yl]-6-(1-methylsulfonylcyclopropyl)pyrimidin-2-yl]phenyl]-3-(5-methyl-1,2-oxazol-3-yl)urea]
1.64 | C[C@H]1COCCN1c1cc(C2(S(C)(=O)=O)CC2)nc(-c2ccc(NC(=O)NCCC#N)cc2)n1 [Example 2x, 3-(2-cyanoethyl)-1-[4-[4-[(3S)-3-methylmorpholin-4-yl]-6-(1-methylsulfonylcyclopropyl)pyrimidin-2-yl]phenyl]urea]
1.66 | CCNC(=O)Nc1ccc(-c2nc(N3CCOC[C@@H]3C)cc(C3(S(=O)(=O)C4CC4)CC3)n2)cc1 [Example 3e, 3-[4-[4-(1-cyclopropylsulfonylcyclopropyl)-6-[(3S)-3-methylmorpholin-4-yl]pyrimidin-2-yl]phenyl]-1-ethyl-urea]
0.932 | CNC(=O)Nc1ccc(-c2nc(N3CCOC[C@@H]3C)cc(C3(S(=O)(=O)C4CC4)CC3)n2)cc1 [Example 3i, 1-[4-[4-(1-cyclopropylsulfonylcyclopropyl)-6-[(3S)-3-methylmorpholin-4-yl]pyrimidin-2-yl]phenyl]-3-methyl-urea]
2.27 | C[C@H]1COCCN1c1cc(C2(S(=O)(=O)C3CC3)CC2)nc(-c2ccc(NC(=O)NC(C)(C)CO)cc2)n1 [Example 3k, 1-[4-[4-(1-cyclopropylsulfonylcyclopropyl)-6-[(3S)-3-methylmorpholin-4-yl]pyrimidin-2-yl]phenyl]-3-(1-hydroxy-2-methyl-propan-2-yl)urea]
2.57 | C[C@H]1COCCN1c1cc(C2(S(=O)(=O)C3CC3)CC2)nc(-c2ccc(NC(=O)NCCCO)cc2)n1 [Example 3l, 1-[4-[4-(1-cyclopropylsulfonylcyclopropyl)-6-[(3S)-3-methylmorpholin-4-yl]pyrimidin-2-yl]phenyl]-3-(3-hydroxypropyl)urea]
0.497 | C[C@H]1COCCN1c1cc(C2(S(=O)(=O)C3CC3)CC2)nc(-c2ccc(NC(=O)Nc3cnn(C)c3)cc2)n1 [Example 3m, 1-[4-[4-(1-cyclopropylsulfonylcyclopropyl)-6-[(3S)-3-methylmorpholin-4-yl]pyrimidin-2-yl]phenyl]-3-(1-methylpyrazol-4-yl)urea]

same assay, conditions: table of enzyme assay Test (a)(ii); read-out: Test (a)(ii) IC50

Structure (SMILES) | IC50 [nM]
C[C@H]1COCCN1c1cc(C2(S(C)(=O)=O)CC2)nc(-c2ccc(NC(=O)Nc3ccc(F)c(F)c3)cc2)n1 [Example 2q, 3-(3,4-difluorophenyl)-1-[4-[4-[(3S)-3-methylmorpholin-4-yl]-6-(1-methylsulfonylcyclopropyl)pyrimidin-2-yl]phenyl]urea] | 0.379
Cc1ccc(NC(=O)Nc2ccc(-c3nc(N4CCOC[C@@H]4C)cc(C4(S(C)(=O)=O)CC4)n3)cc2)cc1 [Example 2r, 1-[4-[4-[(3S)-3-methylmorpholin-4-yl]-6-(1-methylsulfonylcyclopropyl)pyrimidin-2-yl]phenyl]-3-(4-methylphenyl)urea] | 1.03
C[C@H]1COCCN1c1cc(C2(S(C)(=O)=O)CC2)nc(-c2ccc(NC(=O)Nc3ccc(Cl)cc3)cc2)n1 [Example 2s, 3-(4-chlorophenyl)-1-[4-[4-[(3S)-3-methylmorpholin-4-yl]-6-(1-methylsulfonylcyclopropyl)pyrimidin-2-yl]phenyl]urea] | 1.55
COc1ccc(NC(=O)Nc2ccc(-c3nc(N4CCOC[C@@H]4C)cc(C4(S(C)(=O)=O)CC4)n3)cc2)cc1 [Example 2t, 3-(4-methoxyphenyl)-1-[4-[4-[(3S)-3-methylmorpholin-4-yl]-6-(1-methylsulfonylcyclopropyl)pyrimidin-2-yl]phenyl]urea] | 0.656
